The Ki is the dissociation constant of the complex between target and ligand, obtained from inhibition or displacement.

Results on 17 compounds are retold here after patent publication EP0942911B1, “BENZOPYRANOPYRROLE AND BENZOPYRANOPYRIDINE ALPHA-1 ADRENERGIC COMPOUNDS” (Abbott Laboratories, priority 1996, dated 1998).

The target in test [1] is T1, α-1b adrenoreceptor (Mesocricetus auratus, UniProt P18841).
T1 sequence (P18841 1-515): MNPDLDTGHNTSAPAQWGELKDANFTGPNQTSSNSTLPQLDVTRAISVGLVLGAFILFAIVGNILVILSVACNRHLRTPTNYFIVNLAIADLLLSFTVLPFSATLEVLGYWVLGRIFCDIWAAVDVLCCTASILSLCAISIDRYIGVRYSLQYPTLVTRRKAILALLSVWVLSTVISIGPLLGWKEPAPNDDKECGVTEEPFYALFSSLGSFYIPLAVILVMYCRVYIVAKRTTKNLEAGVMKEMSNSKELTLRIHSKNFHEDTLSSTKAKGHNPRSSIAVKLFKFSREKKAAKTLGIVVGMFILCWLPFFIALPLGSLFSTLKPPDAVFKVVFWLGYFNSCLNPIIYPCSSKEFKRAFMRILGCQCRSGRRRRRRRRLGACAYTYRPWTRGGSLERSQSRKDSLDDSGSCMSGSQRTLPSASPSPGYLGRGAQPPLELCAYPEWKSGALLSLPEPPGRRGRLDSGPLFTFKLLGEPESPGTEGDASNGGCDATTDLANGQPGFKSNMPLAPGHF
The test is described as follows: biochemical. In kind it is binding, hamster. The following applies: [3H]-prazosin radioligand; cloned receptor in LTK cell membranes; read-out: Radioligand Binding (Ki, nM) 1b (Hamster). The method in brief:
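LTK mouse fibroblasts stably transfected with α-1a, α-1b or α-1d cDNA → roller-bottle culture 5 days at 37 °C → membranes in 50 mM Tris-HCl, stored at -70 °C → radioligand binding → scintillation counting.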

The target of test [2] is T2, α-1B adrenoreceptor (Rattus norvegicus, UniProt P15823).
T2 construct: from tissue; host or cells: rat spleen
T2 sequence (P15823 1-515): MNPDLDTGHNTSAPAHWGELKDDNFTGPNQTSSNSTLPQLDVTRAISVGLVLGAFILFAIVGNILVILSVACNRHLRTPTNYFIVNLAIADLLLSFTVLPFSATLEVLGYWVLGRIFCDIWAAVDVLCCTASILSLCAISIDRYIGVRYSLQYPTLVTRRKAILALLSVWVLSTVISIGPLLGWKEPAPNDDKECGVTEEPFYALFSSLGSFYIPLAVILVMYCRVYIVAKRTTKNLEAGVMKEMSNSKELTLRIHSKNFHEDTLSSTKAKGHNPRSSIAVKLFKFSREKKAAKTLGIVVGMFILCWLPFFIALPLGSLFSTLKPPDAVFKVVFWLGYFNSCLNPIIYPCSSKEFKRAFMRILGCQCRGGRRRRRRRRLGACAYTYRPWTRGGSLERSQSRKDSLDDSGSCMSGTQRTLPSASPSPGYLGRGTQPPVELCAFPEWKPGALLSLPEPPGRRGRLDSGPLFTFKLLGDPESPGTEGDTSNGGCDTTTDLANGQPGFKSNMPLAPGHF
The test is described as follows: cell-based. The settings on record: phenylephrine-induced contraction; Schild plot; read-out: In Vitro Characterization (pA2) Rat Spleen (converted). The source says:
Functional assays indicative of pharmacologically defined α-1 adrenoreceptors were used to further characterize compounds. Inhibition of phenylephrine (PE)-induced contraction of canine prostate smooth muscle can be correlated with α-1A adrenoreceptor activation. […] For each of these models, agonist dose response curves were repeated against increasing concentrations of test agent to derive a Schild plot [log ([…]) against log (molarity of test agent)] to determine the pA2.

Where a name gives a salt, the structure may show the parent alone.

For the compound `COc1cccc2c1[C@@H]1CN(CCCCn3c(=O)[nH]c4c(sc5c(OC)ccnc54)c3=O)C[C@H]1CO2` [Example 17, 3-[4-((3aS,9bR)-trans-9-Methoxy-1,2,3,3a,4,9b-hexahydro-[1]-benzopyrano[3,4-c]pyrrol-2-yl)butyl]-6-methoxy-pyrido[2',3':4,5]thieno[3,2-d]pyrimidine-2,4(1H,3H)-dione dihydrochloride], the Ki on α-1b adrenoreceptor [1] came out at 1.25 nM. Also, the Kb at α-1B adrenoreceptor [2] was 11 nM.

For the compound `COc1cccc2c1[C@@H]1CN(CCCCn3c(=O)[nH]c4c(sc5c(OC)ccnc54)c3=O)C[C@@H]1CO2` [Example 18, 3-[4-((3aR,9bR)-cis-9-Methoxy-1,2,3,3a,4,9b-hexahydro[1]-benzopyrano[3,4-c]pyrrol-2-yl)butyl]-6-methoxy-pyrido[2',3':4,5]thieno[3,2-d]pyrimidine-2,4(1H,3H)-dione dihydrochloride], the inhibitory constant (Ki) on α-1b adrenoreceptor [1] was found to be 5.06 nM. On α-1B adrenoreceptor [2], the Kb is 19.5 nM.

With `COc1cccc2c1[C@@H]1CN(CCCCn3c(=O)[nH]c4c(sc5ccc(Cl)nc54)c3=O)C[C@H]1CO2` [Example 25, 3-[4-((3aS,9bR)-trans-9-Methoxy-1,2,3,3a,4,9b-hexahydro-[1]-benzopyrano[3,4-c]pyrrol-2-yl)butyl]-8-chloro-pyrido[2',3':4,5]thieno[3,2-d]pyrimidine-2,4(1H,3H)-dione dihydrochloride], the Ki at α-1b adrenoreceptor [1] stood at 0.591 nM. For the same compound, the Kb on α-1B adrenoreceptor [2] is 2 nM.

For `COc1ccc2sc3c(=O)n(CCCCN4C[C@H]5COc6cccc(OC)c6[C@@H]5C4)c(=O)[nH]c3c2n1` [Example 26, 3-[4-((3aS,9bR)-trans-9-Methoxy-1,2,3,3a,4,9b-hexahydro-[1]-benzopyrano[3,4-c]pyrrol-2-yl)butyl]-8-methoxy-pyrido[2',3':4,5]thieno[3,2-d]pyrimidine-2,4(1H,3H)-dione hydrochloride], the Ki at α-1b adrenoreceptor [1] is 0.376 nM. The Kb at α-1B adrenoreceptor [2] was 3.16 nM.

As to `COc1cccc2c1[C@@H]1CN(CCCCn3c(=O)[nH]c4c(sc5ccncc54)c3=O)C[C@@H]1CO2` [Example 28, 3-[4-((3aR,9bR)-cis-9-Methoxy-1,2,3,3a,4,9b-hexahydro-[1]-benzopyrano[3,4-c]pyrrol-2-yl)butyl]-pyrido[3',4':4,5]thieno[3,2-d]pyrimidine-2,4(1H,3H)-dione dihydrochloride], the Ki at α-1b adrenoreceptor [1] amounted to 3.69 nM. The Kb on α-1B adrenoreceptor [2] is 4.37 nM.

As to `COc1cccc2c1[C@@H]1CN(CCCCn3c(=O)[nH]c4c(sc5cnccc54)c3=O)C[C@@H]1CO2` [Example 29, 3-[4-((3aR,9bR)-cis-9-Methoxy-1,2,3,3a,4,9b-hexahydro-[1]-benzopyrano[3,4-c]pyrrol-2-yl)butyl]-pyrido[4',3':4,5]thieno[3,2-d]pyrimidine-2,4(1H,3H)-dione dihydrochloride], on α-1b adrenoreceptor [1], the Ki came to 3.69 nM. Further, on α-1B adrenoreceptor [2], the Kb is 12.3 nM.

Take `COc1ccc2sc3c(=O)n(CCCCN4C[C@@H]5COc6cccc(OC)c6[C@@H]5C4)c(=O)[nH]c3c2n1` [Example 30, 3-[4-((3aR,9bR)-cis-9-Methoxy-1,2,3,3a,4,9b-hexahydro-[1]-benzopyrano[3,4-c]pyrrol-2-yl)butyl]-8-methoxy-pyrido[2',3':4,5]thieno[3,2-d]pyrimidine-2,4(1H,3H)-dione hydrochloride]: the inhibitory constant (Ki) on α-1b adrenoreceptor [1] came to 2.67 nM. For the same compound, the Kb on α-1B adrenoreceptor [2] was 21.4 nM.

Consider `COc1cnc2sc3c(=O)n(CCCCN4C[C@@H]5COc6cccc(OC)c6[C@@H]5C4)c(=O)[nH]c3c2n1` [Example 31, 3-[4-((3aR,9bR)-cis-9-Methoxy-1,2,3,3a,4,9b-hexahydro-[1]-benzopyrano[3,4-c]pyrrol-2-yl)butyl]-8-methoxy-pyrazino[2',3':4,5]thieno[3,2-d]pyrimidine-2,4(1H,3H)-dione hydrochloride], for which the Ki at α-1b adrenoreceptor [1] came to 4.79 nM. Further, on α-1B adrenoreceptor [2], the Kb is 14.1 nM.

Turning to `COc1cccc2c1[C@@H]1CN(CCCCn3c(=O)[nH]c4c(sc5ncccc54)c3=O)C[C@@H]1CO2` [Example 34, 3-[4-((3aR,9bR)-cis-9-Methoxy-1,2,3,3a,4,9b-hexahydro-[1]-benzopyrano[3,4-c]pyrrol-2-yl)butyl]-pyrido[3',2':4,5]thieno[3,2-d]pyrimidine-2,4(1H,3H)-dione hydrochloride], the Ki at α-1b adrenoreceptor [1] was 3.37 nM. Besides, the Kb on α-1B adrenoreceptor [2] is 7.59 nM.

For the compound `COc1cccc2c1[C@@H]1CN(CCCCn3c(=O)[nH]c4c(sc5nc(C)ccc54)c3=O)C[C@@H]1CO2` [Example 35, 3-[4-((3aR,9bR)-cis-9-Methoxy-1,2,3,3a,4,9b-hexahydro-[1]-benzopyrano[3,4-c]pyrrol-2-yl)butyl]-7-methyl-pyrido[3',2':4,5]thieno[3,2-d]pyrimidine-2,4(1H,3H)-dione hydrochloride], the inhibition constant (Ki) at α-1b adrenoreceptor [1] was determined as 5.12 nM. Also, the Kb on α-1B adrenoreceptor [2] was 11 nM.

Regarding `COc1cccc2c1[C@@H]1CN(CCCCn3c(=O)[nH]c4c(sc5nccc(OC)c54)c3=O)C[C@@H]1CO2` [Example 36, 3-[4-((3aR,9bR)-cis-9-Methoxy-1,2,3,3a,4,9b-hexahydro-[1]-benzopyrano[3,4-c]pyrrol-2-yl)butyl]-9-methoxy-pyrido[3',2':4,5]thieno[3,2-d]pyrimidine-2,4(1H,3H)-dione hydrochloride], the Ki at α-1b adrenoreceptor [1] was found to be 2.85 nM. In addition, the Kb on α-1B adrenoreceptor [2] was 8.13 nM.

As for `COc1cccc2c1[C@@H]1CN(CCCCn3c(=O)[nH]c4c(sc5ccc(Cl)nc54)c3=O)C[C@@H]1CO2` [Example 37, 3-[4-((3aR,9bR)-cis-9-Methoxy-1,2,3,3a,4,9b-hexahydro-[1]-benzopyrano[3,4-c]pyrrol-2-yl)butyl]-8-chloro-pyrido[2',3':4,5]thieno[3,2-d]pyrimidine-2,4(1H,3H)-dione hydrochloride], the inhibitory constant (Ki) at α-1b adrenoreceptor [1] came out at 3.34 nM. In addition, the Kb at α-1B adrenoreceptor [2] was 9.33 nM.

For `COc1cccc2c1[C@@H]1CN(CCCCn3c(=O)[nH]c4c(sc5cc(Cl)cnc54)c3=O)C[C@@H]1CO2` [Example 38, 3-[4-((3aR,9bR)-cis-9-Methoxy-1,2,3,3a,4,9b-hexahydro-[1]-benzopyrano[3,4-c]pyrrol-2-yl)butyl]-7-chloro-pyrido[2',3':4,5]thieno[3,2-d]pyrimidine-2,4(1H,3H)-dione hydrochloride], the inhibition constant Ki on α-1b adrenoreceptor [1] worked out at 5.63 nM. On α-1B adrenoreceptor [2], the Kb was 19.5 nM.

For the compound `COc1cccc2c1[C@@H]1CN(CCCCn3c(=O)[nH]c4c(sc5ncc(-c6ccccc6)nc54)c3=O)C[C@@H]1CO2` [Example 39, 3-[4-((3aR,9bR)-cis-9-Methoxy-1,2,3,3a,4,9b-hexahydro-[1]-benzopyrano[3,4-c]pyrrol-2-yl)butyl]-8-phenyl-pyrazino[2',3':4,5]thieno[3,2-d]pyrimidine-2,4(1H,3H)-dione hydrochloride], on α-1b adrenoreceptor [1], the Ki amounted to 31.9 nM. Further, on α-1B adrenoreceptor [2], the Kb is 148 nM.

Take `COc1cccc2c1[C@@H]1CN(CCCCn3c(=O)[nH]c4c(sc5nc(-c6ccccc6)cnc54)c3=O)C[C@@H]1CO2` [Example 40, 3-[4-((3aR,9bR)-cis-9-Methoxy-1,2,3,3a,4,9b-hexahydro-[1]-benzopyrano[3,4-c]pyrrol-2-yl)butyl]-7-phenyl-pyrazino[2',3':4,5]thieno[3,2-d]pyrimidine-2,4(1H,3H)-dione hydrochloride]: the inhibition constant (Ki) on α-1b adrenoreceptor [1] was 33.8 nM. Moreover, the Kb at α-1B adrenoreceptor [2] is 759 nM.

For the compound `COc1cccc2c1[C@@H]1CN(CCCCn3c(=O)[nH]c4c(sc5ccncc54)c3=O)C[C@H]1CO2` [Example 41, 3-[4-((3aS,9bR)-trans-9-Methoxy-1,2,3,3a,4,9b-hexahydro-[1]-benzopyrano[3,4-c]pyrrol-2-yl)butyl]-pyrido[3',4':4,5]thieno[3,2-d]pyrimidine-2,4(1H,3H)-dione dihydrochloride], at α-1b adrenoreceptor [1], the Ki was found to be 0.603 nM. On α-1B adrenoreceptor [2], the Kb was 3.98 nM.

`COc1cccc2c1[C@@H]1CN(CCCCn3c(=O)[nH]c4c(sc5cnccc54)c3=O)C[C@H]1CO2` [Example 42, 3-[4-((3aS,9bR)-trans-9-Methoxy-1,2,3,3a,4,9b-hexahydro-[1]-benzopyrano[3,4-c]pyrrol-2-yl)butyl]-pyrido[4',3':4,5]thieno[3,2-d]pyrimidine-2,4(1H,3H)-dione dihydrochloride]: the Ki at α-1b adrenoreceptor [1] is 0.829 nM. For the same compound, on α-1B adrenoreceptor [2], the Kb was 2.75 nM.
